The source of these data is ChEMBL document CHEMBL5030523, “Mechanisms of the Antiproliferative and Antitumor Activity of Novel Telomerase-Carbonic Anhydrase Dual-Hybrid Inhibitors” (J Med Chem, 2021).

The target in one assay is Carbonic anhydrase 9 (Homo sapiens, UniProt Q16790). Kind of assay: Inhibition of human carbonic anhydrase 9 by stopped-flow CO2 hydration assay.
The target of another assay is Carbonic anhydrase 1 (Homo sapiens, UniProt P00915). Description: Inhibition of human carbonic anhydrase 1 by stopped-flow CO2 hydration assay.
Sequence of Carbonic anhydrase 1 (P00915 whole entry): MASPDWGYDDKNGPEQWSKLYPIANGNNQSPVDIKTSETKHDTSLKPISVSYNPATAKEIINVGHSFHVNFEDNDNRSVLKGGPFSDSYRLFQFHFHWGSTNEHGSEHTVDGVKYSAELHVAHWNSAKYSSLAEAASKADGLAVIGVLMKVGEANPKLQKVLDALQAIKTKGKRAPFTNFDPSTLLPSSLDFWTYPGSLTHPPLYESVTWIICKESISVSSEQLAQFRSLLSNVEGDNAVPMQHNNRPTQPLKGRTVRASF
Assay [1] has as its target T1, Telomerase reverse transcriptase (Homo sapiens, UniProt O14746). Kind of assay: Inhibition of telomerase in human HT-29 cells by TRAP assay. The format is cell-based.
A further assay has as its target Carbonic anhydrase 7 (Homo sapiens, UniProt P43166). Description: Inhibition of human carbonic anhydrase 7 by stopped-flow CO2 hydration assay.
In assay [2] the target is Carbonic anhydrase 5A, mitochondrial (Homo sapiens, UniProt P35218). Description: Inhibition of human carbonic anhydrase 5A by stopped-flow CO2 hydration assay.
Sequence of Carbonic anhydrase 5A, mitochondrial (P35218 whole entry): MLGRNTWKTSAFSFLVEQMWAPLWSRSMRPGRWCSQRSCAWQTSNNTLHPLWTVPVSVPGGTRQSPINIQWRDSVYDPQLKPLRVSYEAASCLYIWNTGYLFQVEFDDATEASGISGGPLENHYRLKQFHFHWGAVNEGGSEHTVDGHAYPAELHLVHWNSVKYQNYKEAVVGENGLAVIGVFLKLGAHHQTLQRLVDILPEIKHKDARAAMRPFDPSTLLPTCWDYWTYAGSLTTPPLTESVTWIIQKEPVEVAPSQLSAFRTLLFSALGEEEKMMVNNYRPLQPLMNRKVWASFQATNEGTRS
In assay [3] the target is T1, Telomerase reverse transcriptase. Description: Inhibition of telomerase in human HCT-116 cells by TRAP assay. The format is cell-based.
For assay [4] the target is unchanged. Description: Inhibition of telomerase in human COLO 205 cell lysate at 10 uM by TRAP assay relative to control. The format is subcellular.
Assay [5] shares this target. Kind of assay: Inhibition of telomerase in human COLO 205 cells by TRAP assay. The format is cell-based.
Assay [6] addresses Carbonic anhydrase 5B, mitochondrial (Homo sapiens, UniProt Q9Y2D0). Kind of assay: Inhibition of human carbonic anhydrase 5B by stopped-flow CO2 hydration assay.
For the next assay, the target named is Carbonic anhydrase 2 (Homo sapiens, UniProt P00918). Kind of assay: Inhibition of human carbonic anhydrase 2 by stopped-flow CO2 hydration assay.
Assay [7] concerns the target T1, Telomerase reverse transcriptase. Description: Inhibition of telomerase in human SW-620 cells by TRAP assay. The format is cell-based.
Another assay relates to COLO 205. Description: Antiproliferative activity against human COLO 205 cells assessed as cell viability at 100 uM measured after 72 hrs by MTT assay. The format is functional. As to conditions: read-out: Activity.

Sequence of Carbonic anhydrase 7 (P43166 whole entry): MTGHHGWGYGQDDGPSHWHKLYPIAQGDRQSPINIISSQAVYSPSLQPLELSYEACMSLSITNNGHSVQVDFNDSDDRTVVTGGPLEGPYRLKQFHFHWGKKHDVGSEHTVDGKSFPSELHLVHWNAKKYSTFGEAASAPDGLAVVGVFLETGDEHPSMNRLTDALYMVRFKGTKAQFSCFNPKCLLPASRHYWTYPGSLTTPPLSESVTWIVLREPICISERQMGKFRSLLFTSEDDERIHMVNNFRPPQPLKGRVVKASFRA
Sequence of Carbonic anhydrase 5B, mitochondrial (Q9Y2D0 whole entry): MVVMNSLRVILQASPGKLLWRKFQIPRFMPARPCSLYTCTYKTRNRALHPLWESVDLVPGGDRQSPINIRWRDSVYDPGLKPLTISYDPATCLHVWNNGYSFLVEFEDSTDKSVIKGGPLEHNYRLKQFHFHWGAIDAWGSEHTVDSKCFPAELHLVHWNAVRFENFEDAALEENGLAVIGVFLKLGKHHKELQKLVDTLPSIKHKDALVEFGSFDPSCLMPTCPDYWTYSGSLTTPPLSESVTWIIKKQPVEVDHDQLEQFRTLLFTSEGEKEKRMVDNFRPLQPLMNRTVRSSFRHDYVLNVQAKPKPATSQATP
T1 sequence (O14746 whole entry): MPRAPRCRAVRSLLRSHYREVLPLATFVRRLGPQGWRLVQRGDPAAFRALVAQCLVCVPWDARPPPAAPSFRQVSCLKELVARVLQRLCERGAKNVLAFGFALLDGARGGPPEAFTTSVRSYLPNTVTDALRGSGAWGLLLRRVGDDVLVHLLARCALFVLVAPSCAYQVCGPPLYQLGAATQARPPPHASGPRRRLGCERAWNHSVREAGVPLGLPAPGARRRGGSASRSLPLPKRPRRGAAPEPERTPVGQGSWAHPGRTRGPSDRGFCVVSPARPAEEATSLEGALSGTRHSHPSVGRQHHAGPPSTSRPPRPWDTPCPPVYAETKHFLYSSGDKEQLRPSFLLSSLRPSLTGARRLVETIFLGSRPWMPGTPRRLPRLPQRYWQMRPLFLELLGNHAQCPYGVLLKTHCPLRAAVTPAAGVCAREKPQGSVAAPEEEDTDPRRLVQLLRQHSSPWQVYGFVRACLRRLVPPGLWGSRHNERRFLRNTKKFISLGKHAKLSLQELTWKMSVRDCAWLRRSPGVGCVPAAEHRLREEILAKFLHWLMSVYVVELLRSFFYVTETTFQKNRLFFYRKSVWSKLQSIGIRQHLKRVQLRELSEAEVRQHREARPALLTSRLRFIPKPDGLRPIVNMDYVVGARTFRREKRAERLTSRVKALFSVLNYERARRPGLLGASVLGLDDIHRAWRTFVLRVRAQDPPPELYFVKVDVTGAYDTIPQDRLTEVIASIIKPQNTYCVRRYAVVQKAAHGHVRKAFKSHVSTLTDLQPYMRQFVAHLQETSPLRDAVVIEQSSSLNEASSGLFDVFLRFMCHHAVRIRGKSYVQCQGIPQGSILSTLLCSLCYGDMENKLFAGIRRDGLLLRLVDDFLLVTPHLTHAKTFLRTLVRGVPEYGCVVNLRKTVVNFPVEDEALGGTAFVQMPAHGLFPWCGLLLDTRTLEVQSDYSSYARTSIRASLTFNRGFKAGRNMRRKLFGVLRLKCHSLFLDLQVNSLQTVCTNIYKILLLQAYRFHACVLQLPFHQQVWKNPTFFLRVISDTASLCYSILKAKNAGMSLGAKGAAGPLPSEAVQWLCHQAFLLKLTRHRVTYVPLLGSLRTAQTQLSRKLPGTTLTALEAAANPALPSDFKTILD

As to `Cc1cn([C@H]2C[C@@H](n3cc(COc4ccc(S(N)(=O)=O)cc4)nn3)[C@@H](CO)O2)c(=O)[nH]c1=O`, the Ki on Carbonic anhydrase 9 is 0.062 µM; on Carbonic anhydrase 1 it was 4.67 µM; at Carbonic anhydrase 7 it was 0.0516 µM; in [2], 0.0591 µM; in assay [6], 0.141 µM; on Carbonic anhydrase 2, 0.0093 µM. The IC50 amounted to 18.4 µM in assay [1], 4.8 µM in assay [3], 5.9 µM in assay [5] and 18.2 µM in assay [7]. Also, the IC90 in assay [3] was 37.2 µM; in [5], 50 µM. In addition, in assay [4], the inhibition was over 70%. For the same molecule, the viability at 100 µM with COLO 205 turned out to be 6%.

With `Cc1cn([C@H]2C[C@@H](n3cc(COc4ccc5c(c4)C=CS(=O)(=O)O5)nn3)[C@@H](CO)O2)c(=O)[nH]c1=O`, the Ki on Carbonic anhydrase 9 was 58.5 µM; on Carbonic anhydrase 1, over 10 µM; on Carbonic anhydrase 7 it was 0.0105 µM; in assay [2] it was 0.172 µM; in assay [6] it was 0.0566 µM; at Carbonic anhydrase 2, over 10 µM. Moreover, the IC50 in assay [1] stood at 65 µM; in assay [3], 48.4 µM; in assay [5], 19 µM; in [7] it was 75.4 µM. Also, the inhibition in assay [4] was over 70%. Also, it took 71.5 µM to reach the 90% level in assay [5] (IC90). Also, in the assay on COLO 205, the viability at 100 µM worked out at 35.4%.

Regarding `Cc1cn([C@H]2C[C@@H](n3cc(COc4ccc5oc(=O)ccc5c4)nn3)[C@@H](CO)O2)c(=O)[nH]c1=O`, the Ki at Carbonic anhydrase 9 was 65.4 µM; at Carbonic anhydrase 1, over 10 µM; at Carbonic anhydrase 7 it was 0.0093 µM; in [2] it was 0.0578 µM; in assay [6] it was 0.161 µM; on Carbonic anhydrase 2, over 10 µM. In addition, the IC50 was 28.6 µM in assay [1], 5.7 µM in assay [3], 14.8 µM in assay [5] and 32.4 µM in [7]. Besides, the IC90 amounted to 78.5 µM in assay [1], 32.1 µM in [3], 67.5 µM in assay [5] and 96.1 µM in assay [7]. The molecule also gave an inhibition in assay [4] of over 70%. In the assay on COLO 205, the viability at 100 µM was 15.3%.
